# Active and inactive are the calls of the source.
# Key:
# Fatty acid synthase [1] = target: T1, Fatty acid synthase (Homo sapiens, UniProt P49327); assay: FAS thioesterase domain inhibitors, dose response, biochemical, endpoint fluorescence intensity, uHTS hits (AID 624327); type: functional;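 further: fluorescence from hydrolysis of an O-methyl fluorescein acyl ester substrate by the enzyme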
# Fatty acid synthase [2] = target: T1, Fatty acid synthase; assay: FAS thioesterase domain inhibitors, dose response, biochemical, kinetic fluorescence intensity (AID 624326); type: functional;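 further: rate of fluorescence rise from hydrolysis of a fluorogenic O-methyl fluorescein ester substrate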
# [3] = inhibitors of HIV Env-driven cell fusion, dose response, cherry-pick (AID 652057); type: functional, cell-based
# [4] = ZM109 Env clade C HIV-1 fusion inhibitors, dose response, HeLa effector, CEM target cells, luciferase, cherry-pick (AID 652058); type: functional, cell-based
# [5] = inhibitors of clade B AD8 Env fusion, dose response, cell-based, cherry-pick (AID 652062); type: functional;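 further: luciferase signal from cell-cell fusion driven by HIV-1 clade B AD8 Env; potency is for inhibitors of fusion seen as a drop in luminescence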
# [6] = target: Voltage-dependent T-type calcium channel subunit alpha-1H (Homo sapiens, UniProt O95180); type: functional;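 further: channel activity triggered by adding a high calcium stimulation buffer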
# Cytochrome P450 1A2 = target: T2, Cytochrome P450 1A2 (Homo sapiens, UniProt P05177);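 further: PubChem cytochrome P450 panel assay, CYP1A2 panel member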
# T2 sequence (P05177 whole entry): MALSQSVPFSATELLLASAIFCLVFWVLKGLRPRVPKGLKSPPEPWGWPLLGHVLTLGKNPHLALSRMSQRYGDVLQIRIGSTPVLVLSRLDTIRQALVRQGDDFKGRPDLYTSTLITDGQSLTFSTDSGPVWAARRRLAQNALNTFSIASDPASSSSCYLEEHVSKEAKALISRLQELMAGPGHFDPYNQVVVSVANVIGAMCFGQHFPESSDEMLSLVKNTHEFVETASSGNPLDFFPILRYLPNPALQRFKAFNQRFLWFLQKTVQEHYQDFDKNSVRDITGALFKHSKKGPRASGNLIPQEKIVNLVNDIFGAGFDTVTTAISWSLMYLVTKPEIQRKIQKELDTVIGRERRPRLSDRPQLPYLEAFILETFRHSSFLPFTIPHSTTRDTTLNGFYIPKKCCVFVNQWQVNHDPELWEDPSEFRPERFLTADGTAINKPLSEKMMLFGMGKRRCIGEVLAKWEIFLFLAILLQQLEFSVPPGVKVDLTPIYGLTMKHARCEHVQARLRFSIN
# Cytochrome P450 3A4 = Cytochrome P450 3A4 (Homo sapiens, UniProt P08684);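 further: CYP3A4 tested as one member of a cytochrome P450 panel screen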
# [7] = THP-1 cell cytotoxicity, dose response, cytotoxicity control for Vif-APOBEC3G degradation inhibitor project, THP-1 cells (AID 1117359); type: functional; conditions: Human immunodeficiency virus 1, THP-1
# [8] = target: T3, Polyadenylate-binding protein 1 (Homo sapiens, UniProt P11940); assay: PABP1 MLLE–PAM2 interaction inhibitors, dose response, miRNA deadenylation inhibitor project, biochemical, fluorescence polarization, Cy5-PAM2 peptide, secondary (AID 602260); type: functional; conditions: read-out: IC50_Mean
# [9] = target: T3, Polyadenylate-binding protein 1; assay: PABP1 MLLE–PAM2 binding inhibitor potency, dose response, biochemical, fluorescence polarization, FITC-PAM2 peptide (AID 602259); type: functional; conditions: read-out: IC50_Mean
# [10] = target: T4, Short transient receptor potential channel 4 (Mus musculus, UniProt Q9QUQ5); assay: mouse TRPC4 channel inhibitors, dose response, cell-based, HEK293 TRPC4/mu-opioid, Fluo-4 calcium (AID 434942); type: functional;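 further: potency of inhibitors blocking the TRPC4 calcium response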
# T4 sequence (Q9QUQ5 whole entry): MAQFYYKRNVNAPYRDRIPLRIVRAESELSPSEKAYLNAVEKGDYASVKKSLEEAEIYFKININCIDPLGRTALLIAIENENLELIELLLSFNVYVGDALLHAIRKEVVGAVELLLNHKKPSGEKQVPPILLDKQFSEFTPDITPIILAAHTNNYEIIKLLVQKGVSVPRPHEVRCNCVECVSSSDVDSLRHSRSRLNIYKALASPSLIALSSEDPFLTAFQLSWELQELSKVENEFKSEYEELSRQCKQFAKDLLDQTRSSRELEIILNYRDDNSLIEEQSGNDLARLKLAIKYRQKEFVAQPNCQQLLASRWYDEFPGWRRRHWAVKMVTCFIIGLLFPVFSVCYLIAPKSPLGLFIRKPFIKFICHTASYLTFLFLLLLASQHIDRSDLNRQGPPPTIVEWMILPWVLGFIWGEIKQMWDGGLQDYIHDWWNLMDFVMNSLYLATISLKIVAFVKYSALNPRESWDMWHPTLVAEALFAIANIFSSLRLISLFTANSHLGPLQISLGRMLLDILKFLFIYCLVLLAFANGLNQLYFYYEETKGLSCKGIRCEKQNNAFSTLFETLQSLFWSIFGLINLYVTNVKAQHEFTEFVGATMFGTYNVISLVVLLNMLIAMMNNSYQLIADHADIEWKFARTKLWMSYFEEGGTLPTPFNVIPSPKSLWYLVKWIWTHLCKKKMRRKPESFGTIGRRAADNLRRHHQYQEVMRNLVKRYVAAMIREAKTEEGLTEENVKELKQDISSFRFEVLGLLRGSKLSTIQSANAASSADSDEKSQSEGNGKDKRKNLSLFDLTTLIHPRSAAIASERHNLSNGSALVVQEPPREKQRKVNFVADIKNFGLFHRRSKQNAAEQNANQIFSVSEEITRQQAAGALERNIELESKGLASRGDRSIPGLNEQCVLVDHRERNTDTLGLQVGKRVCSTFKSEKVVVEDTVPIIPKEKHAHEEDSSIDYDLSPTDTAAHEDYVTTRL
# Genome polyprotein = Genome polyprotein (dengue virus type 2, UniProt P29990); assay: Dengue-2 NS5 methyltransferase inhibitors, primary screen, biochemical, confirmation dose response (AID 588689); type: functional
# [11] = target: T5, Rac GTPase-activating protein 1 (Homo sapiens, UniProt Q9H0H5); assay: MgcRacGAP GTPase-activating activity inhibitors, confirmation, biochemical, ADP Hunter fluorescence, primary and confirmatory (AID 624330); type: functional
# T5 sequence (Q9H0H5 whole entry): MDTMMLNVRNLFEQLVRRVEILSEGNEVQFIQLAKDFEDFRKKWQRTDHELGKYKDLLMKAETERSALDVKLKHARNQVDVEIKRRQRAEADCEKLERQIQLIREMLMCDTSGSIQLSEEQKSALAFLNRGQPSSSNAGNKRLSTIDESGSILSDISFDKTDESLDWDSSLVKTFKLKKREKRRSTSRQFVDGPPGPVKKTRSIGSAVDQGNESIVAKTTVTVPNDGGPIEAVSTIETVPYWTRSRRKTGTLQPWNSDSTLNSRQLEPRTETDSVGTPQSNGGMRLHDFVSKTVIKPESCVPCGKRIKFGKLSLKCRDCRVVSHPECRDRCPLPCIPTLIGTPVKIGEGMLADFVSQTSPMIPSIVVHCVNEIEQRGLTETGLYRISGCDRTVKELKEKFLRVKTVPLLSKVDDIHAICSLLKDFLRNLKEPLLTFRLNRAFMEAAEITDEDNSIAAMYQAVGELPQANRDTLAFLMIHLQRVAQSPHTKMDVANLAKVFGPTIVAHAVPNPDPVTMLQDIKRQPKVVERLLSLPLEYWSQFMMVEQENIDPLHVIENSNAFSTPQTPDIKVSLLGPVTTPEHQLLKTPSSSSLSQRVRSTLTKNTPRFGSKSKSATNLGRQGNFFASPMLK
# Voltage-dependent T-type calcium channel subunit alpha-1H, sequence (O95180 whole entry): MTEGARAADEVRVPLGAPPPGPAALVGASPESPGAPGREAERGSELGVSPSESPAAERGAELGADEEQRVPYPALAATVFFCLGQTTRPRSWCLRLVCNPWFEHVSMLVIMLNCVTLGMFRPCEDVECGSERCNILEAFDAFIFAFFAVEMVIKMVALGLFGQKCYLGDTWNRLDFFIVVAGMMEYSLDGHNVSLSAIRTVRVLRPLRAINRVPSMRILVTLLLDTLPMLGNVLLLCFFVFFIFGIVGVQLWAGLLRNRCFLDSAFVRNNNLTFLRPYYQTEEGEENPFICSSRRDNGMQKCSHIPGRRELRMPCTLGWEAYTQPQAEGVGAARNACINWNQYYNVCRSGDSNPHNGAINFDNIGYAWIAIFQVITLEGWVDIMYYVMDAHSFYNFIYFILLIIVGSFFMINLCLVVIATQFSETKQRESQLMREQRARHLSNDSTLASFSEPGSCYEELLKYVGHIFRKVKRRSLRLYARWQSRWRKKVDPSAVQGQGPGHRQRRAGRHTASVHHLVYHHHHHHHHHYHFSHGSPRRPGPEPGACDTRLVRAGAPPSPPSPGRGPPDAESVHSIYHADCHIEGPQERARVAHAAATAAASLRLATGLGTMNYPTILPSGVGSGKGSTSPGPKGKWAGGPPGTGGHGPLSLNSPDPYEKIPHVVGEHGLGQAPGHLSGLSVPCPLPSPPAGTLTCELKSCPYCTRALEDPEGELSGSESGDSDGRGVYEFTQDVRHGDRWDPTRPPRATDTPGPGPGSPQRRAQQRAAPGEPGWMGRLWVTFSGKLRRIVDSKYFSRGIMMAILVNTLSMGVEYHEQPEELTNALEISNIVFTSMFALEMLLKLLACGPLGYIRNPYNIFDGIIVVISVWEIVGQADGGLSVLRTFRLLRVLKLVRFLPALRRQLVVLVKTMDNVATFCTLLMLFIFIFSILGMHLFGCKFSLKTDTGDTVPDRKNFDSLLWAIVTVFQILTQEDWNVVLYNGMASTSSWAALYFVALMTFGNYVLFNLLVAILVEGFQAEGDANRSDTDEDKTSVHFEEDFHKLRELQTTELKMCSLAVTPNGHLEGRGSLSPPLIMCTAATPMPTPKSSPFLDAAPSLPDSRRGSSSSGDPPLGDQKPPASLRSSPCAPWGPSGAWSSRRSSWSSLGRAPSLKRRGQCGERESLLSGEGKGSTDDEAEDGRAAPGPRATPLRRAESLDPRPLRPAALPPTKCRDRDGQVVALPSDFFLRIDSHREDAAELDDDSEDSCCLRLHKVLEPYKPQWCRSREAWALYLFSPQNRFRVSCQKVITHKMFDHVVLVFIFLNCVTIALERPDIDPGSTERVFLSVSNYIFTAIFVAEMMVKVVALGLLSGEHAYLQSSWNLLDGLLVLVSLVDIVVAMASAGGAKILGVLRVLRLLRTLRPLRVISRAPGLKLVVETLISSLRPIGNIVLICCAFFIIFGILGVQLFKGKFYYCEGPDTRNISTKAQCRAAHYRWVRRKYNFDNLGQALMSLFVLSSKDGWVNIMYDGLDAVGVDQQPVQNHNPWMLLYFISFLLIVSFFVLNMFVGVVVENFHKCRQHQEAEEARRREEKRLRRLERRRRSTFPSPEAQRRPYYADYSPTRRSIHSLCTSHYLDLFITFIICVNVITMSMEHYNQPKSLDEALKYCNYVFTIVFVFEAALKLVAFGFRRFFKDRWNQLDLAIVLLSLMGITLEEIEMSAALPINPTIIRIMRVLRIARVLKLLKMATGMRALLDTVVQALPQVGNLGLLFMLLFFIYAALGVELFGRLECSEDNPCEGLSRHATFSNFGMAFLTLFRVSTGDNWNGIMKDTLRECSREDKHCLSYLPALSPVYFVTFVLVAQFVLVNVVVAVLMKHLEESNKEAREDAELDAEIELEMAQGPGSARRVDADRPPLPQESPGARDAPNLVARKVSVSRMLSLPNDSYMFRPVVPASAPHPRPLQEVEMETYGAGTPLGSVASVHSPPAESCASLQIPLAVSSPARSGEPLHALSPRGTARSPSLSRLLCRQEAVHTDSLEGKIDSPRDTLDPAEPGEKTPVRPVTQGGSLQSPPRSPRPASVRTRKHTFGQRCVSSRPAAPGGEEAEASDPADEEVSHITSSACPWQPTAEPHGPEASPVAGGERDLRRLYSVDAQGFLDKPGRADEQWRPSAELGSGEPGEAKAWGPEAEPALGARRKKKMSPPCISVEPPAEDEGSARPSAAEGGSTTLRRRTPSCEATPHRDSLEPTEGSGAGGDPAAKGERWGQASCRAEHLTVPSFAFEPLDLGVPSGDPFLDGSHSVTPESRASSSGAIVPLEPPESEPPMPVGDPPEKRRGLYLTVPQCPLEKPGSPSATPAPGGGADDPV
# T1 sequence (P49327 whole entry, the tested form may be a part): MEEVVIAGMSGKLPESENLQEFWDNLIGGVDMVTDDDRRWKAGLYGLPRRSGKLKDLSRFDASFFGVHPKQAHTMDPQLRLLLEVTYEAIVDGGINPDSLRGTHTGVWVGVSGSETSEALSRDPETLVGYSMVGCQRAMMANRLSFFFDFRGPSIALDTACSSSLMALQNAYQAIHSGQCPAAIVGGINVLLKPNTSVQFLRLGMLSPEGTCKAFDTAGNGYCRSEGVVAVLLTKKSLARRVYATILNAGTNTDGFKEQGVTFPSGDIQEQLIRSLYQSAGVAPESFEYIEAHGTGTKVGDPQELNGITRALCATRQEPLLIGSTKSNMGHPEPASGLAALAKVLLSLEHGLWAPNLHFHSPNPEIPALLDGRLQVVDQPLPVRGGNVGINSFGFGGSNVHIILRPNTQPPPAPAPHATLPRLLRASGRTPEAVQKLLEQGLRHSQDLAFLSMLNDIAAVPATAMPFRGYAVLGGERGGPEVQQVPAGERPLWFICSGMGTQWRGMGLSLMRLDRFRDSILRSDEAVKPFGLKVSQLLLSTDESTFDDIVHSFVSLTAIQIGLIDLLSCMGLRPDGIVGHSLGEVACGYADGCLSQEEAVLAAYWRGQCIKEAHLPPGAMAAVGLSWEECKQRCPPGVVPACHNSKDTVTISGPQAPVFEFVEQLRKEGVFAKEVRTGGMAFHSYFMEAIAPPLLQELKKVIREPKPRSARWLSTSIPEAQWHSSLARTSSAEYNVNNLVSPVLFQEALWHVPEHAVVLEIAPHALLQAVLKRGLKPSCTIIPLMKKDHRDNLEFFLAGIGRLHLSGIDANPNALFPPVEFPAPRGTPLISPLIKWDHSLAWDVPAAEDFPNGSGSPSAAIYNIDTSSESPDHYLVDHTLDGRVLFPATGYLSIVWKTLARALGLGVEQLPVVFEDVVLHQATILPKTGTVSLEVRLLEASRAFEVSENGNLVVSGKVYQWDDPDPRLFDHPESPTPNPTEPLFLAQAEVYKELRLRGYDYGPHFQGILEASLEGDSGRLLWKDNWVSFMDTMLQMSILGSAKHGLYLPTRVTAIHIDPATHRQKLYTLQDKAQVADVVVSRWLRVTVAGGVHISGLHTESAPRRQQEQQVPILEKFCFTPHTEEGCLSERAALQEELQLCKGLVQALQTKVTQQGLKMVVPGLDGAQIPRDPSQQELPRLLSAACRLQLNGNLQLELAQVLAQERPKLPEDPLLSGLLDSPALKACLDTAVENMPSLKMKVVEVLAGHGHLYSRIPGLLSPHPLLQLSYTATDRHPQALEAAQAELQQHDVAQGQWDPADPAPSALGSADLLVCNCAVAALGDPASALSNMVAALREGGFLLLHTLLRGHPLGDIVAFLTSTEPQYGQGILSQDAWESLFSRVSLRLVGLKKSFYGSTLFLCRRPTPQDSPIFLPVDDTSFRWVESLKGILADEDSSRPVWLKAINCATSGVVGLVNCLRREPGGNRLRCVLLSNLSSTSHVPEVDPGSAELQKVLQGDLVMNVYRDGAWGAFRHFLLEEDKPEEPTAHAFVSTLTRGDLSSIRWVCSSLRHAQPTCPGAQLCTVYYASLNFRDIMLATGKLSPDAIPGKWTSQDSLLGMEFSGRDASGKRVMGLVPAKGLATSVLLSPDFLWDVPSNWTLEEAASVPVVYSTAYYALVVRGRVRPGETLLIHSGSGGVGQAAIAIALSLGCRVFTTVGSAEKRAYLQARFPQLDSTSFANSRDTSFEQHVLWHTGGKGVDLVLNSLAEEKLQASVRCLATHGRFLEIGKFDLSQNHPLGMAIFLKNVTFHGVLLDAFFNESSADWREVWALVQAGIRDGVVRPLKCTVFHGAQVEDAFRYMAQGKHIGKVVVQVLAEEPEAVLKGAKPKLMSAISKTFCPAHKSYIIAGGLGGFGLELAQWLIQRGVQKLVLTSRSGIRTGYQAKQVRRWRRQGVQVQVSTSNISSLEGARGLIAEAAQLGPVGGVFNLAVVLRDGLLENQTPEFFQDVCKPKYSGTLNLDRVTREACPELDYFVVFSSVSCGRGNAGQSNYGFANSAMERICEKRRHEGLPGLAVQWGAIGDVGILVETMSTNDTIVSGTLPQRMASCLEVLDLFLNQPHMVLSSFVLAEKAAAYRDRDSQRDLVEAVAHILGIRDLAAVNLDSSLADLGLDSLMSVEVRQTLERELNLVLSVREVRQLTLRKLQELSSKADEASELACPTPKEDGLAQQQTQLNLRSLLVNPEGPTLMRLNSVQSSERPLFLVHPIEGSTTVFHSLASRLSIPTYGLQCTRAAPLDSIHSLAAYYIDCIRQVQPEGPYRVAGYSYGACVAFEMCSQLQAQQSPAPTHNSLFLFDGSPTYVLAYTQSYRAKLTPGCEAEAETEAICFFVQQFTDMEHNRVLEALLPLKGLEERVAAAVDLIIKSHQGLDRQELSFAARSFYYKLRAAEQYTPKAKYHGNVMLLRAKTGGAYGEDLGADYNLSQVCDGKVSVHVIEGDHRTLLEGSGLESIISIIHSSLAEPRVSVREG
smiles,measurement,setting,value
Cc1nn(Cc2ccc([N+](=O)[O-])cc2)c(=O)n1N(C)c1ncc(C(F)(F)F)cc1Cl,IC50,Fatty acid synthase [1],4.91 µM (active)
same,IC50,Fatty acid synthase [2],2.51 µM (active)
C[C@H]1CN([C@@H](C)CO)S(=O)(=O)c2ccc(Br)cc2O[C@H]1CN(C)Cc1ccccc1,AC50,[3],23.5 µM (active)
same,AC50,[4],20.6 µM (active)
same,AC50,[5],33.4 µM (active)
O=C(CC1NCCNC1=O)Nc1ccc(Oc2ccccc2)cc1 (stereo unspecified),EC50,[6],8.83 µM (active)
CC(C)c1ccc(CN(C(=O)C2COc3ccccc3O2)C2CCS(=O)(=O)C2)cc1 (stereo unspecified),EC50,[6],6.86 µM (active)
same,AC50,Cytochrome P450 1A2,25.1 µM (inconclusive)
same,AC50,Cytochrome P450 3A4,28.2 µM (inconclusive)
COC(=O)C(CCCCNC(=O)c1ccc([N+](=O)[O-])cc1)NC(=O)c1ccc([N+](=O)[O-])cc1 (stereo unspecified),IC50,Fatty acid synthase [1],33.6 µM (inactive)
same,IC50,Fatty acid synthase [2],55.8 µM (inactive)
CC1CCN(c2ccc([N+](=O)[O-])c(SCCO)c2)CC1,CC50,[7],> 40 µM (active)
c1ccc2c3c([nH]c2c1)CNCC3 [TRYPTOLINE],CC50,[7],28.7 µM (active)
Cc1ccc(-c2noc(CN(C(=O)C(c3ccccc3)c3ccccc3)C(C)C)n2)cc1,EC50,[6],5.14 µM (active)
O=C(c1cccc(C(F)(F)F)c1)C1CCCN(C(=O)CCCN2CCCC2=O)C1 (stereo unspecified),CC50,[7],> 40 µM (active)
CC[C@]1(C(=O)OC)[C@H]2C(=O)N(Cc3ccccc3)C(=O)[C@H]2[C@H]2CN=C(SCC(=O)c3ccccc3)N21,IC50,[8],> 66 µM (inactive)
same,IC50,[9],> 66 µM (inactive)
COC(=O)N1C(=O)[C@](Cc2ccccc2)(c2ccccc2)N1C(=O)OC,IC50,Fatty acid synthase [1],5.18 µM (active)
same,IC50,Fatty acid synthase [2],4.85 µM (active)
CN1C(C(=O)NCc2cccc(Br)c2)CC2Cn3c(nc4cc(Cl)c(Cl)cc43)C21 (stereo unspecified),IC50,Fatty acid synthase [1],15.2 µM (active)
same,IC50,Fatty acid synthase [2],10.3 µM (active)
COc1ccc(NC(=O)Nc2ccc3c(c2)C(=O)N([C@@H](C)CO)C[C@H](C)[C@H](CN(C)S(=O)(=O)c2ccc(C)cc2)O3)cc1,AC50,[3],6.5 µM (active)
same,AC50,[4],17.5 µM (active)
same,AC50,[5],23 µM (active)
COc1ccc(N2CCN(C(=O)CC(NC(N)=O)c3cccc(Oc4ccccc4)c3)CC2)cc1 (stereo unspecified),EC50,[6],13.7 µM (active)
Cc1cc(C)c2c(N)c(C(=O)NCC3CCCCC3)sc2n1,IC50,[8],> 66 µM (inactive)
same,IC50,[9],> 66 µM (inactive)
CCN(CC)CCSC(=O)C(c1ccccc1)c1ccccc1,IC50,[8],> 66 µM (inactive)
same,IC50,[9],> 66 µM (inactive)
O=C(COc1ccc(Cl)cc1)Nc1ccc(C(=O)O)cc1NC(=O)COc1ccc(Cl)cc1,EC50,[10],0.0013 µM (active)
same,IC50,Fatty acid synthase [1],15.3 µM (active)
same,IC50,Fatty acid synthase [2],7.29 µM (active)
COc1cccc(/C=C2\C(=O)C(=O)c3ccccc32)c1,IC50,Genome polyprotein,12.9 µM (active)
same,IC50,[8],> 66 µM (inactive)
same,IC50,[9],> 66 µM (inactive)
same,IC50,[11],47.3 µM (active)

# Source: ChEMBL document CHEMBL1201862, “PubChem BioAssay data set” (2004)
